What was measured:
Assay in all cases: liposome co-sedimentation with anti-His Western blot; protein-lipid overlay
Type in all cases: binding
PIG-P-like protein = target: T1, PIG-P-like protein (Arabidopsis thaliana, UniProt A0A1P8B1E2); conditions: pH 7.0, 0.1 M NaCl, 30 °C, 30 min; 1 μg protein; lipid in liposomes
T1 construct: gene TRM18; coding region, no signal peptide; pET15b His tag; E. coli BL21(DE3)pLysS; Ni-NTA purified; 50 kDa
T1 sequence (A0A1P8B1E2 1-464): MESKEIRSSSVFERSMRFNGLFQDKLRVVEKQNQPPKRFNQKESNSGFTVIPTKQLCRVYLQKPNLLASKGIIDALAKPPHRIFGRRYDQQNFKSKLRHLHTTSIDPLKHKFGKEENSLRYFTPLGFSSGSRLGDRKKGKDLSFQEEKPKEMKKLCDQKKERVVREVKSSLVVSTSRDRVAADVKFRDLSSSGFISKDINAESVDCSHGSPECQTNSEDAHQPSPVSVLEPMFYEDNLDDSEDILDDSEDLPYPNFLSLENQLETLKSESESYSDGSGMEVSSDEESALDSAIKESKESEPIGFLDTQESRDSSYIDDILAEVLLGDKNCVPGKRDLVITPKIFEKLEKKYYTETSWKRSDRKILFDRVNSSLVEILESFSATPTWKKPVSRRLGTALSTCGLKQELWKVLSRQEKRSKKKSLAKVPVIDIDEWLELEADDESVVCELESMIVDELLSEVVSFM

[1] = target: T2, PLAFP (phloem lipid-associated family protein) (Arabidopsis thaliana, UniProt O65660); conditions: pH 7.0, 0.1 M NaCl, 30 °C, 30 min; 1 μg protein; PtdOH mixed into PtdCho liposomes; figure modified from Benning et al. 2012 (same laboratory)
T2 construct: gene PLAT1; 23-residue predicted signal peptide removed; pET15b His tag; E. coli OrigamiB(DE3)pLysS; HisLink purified
T2 sequence (O65660 24-181): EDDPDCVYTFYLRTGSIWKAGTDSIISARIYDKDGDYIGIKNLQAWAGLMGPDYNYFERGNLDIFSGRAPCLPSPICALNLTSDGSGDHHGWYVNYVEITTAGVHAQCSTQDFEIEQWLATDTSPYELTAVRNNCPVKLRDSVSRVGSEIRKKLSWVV

GDSL-lipase = target: T3, GDSL-lipase (Arabidopsis thaliana, UniProt Q9C7N5); conditions: pH 7.0, 0.1 M NaCl, 30 °C, 30 min; 10 μg protein; lipid in liposomes
T3 construct: gene At1g29660; 26-residue predicted signal peptide removed; pET15b His tag; E. coli BL21(DE3)pLysS; Ni-NTA purified
T3 sequence (Q9C7N5 27-364): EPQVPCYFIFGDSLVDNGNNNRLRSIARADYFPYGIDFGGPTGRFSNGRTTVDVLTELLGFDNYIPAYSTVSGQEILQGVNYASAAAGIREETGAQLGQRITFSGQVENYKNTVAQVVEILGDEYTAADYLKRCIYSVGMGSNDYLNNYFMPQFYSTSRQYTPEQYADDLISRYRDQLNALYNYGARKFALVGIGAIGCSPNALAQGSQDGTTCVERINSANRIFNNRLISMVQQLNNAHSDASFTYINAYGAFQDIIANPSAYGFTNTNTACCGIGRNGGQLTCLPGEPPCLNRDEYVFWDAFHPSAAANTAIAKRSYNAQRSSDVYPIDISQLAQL

CCCCCCCC/C=C\CCCCCCCC(=O)OC[C@H](COP(=O)(O)O)OC(=O)CCCCCCC/C=C\CCCCCCCC [PtdOH]
liposome co-sedimentation with anti-His Western blot; protein-lipid overlay (PIG-P-like protein): PIG-P binds to liposomes containing PtdOH or PtdSer | liposome co-sedimentation with anti-His Western blot; protein-lipid overlay [1]: when PtdOH was included in the liposome, PLAFP bound | liposome co-sedimentation with anti-His Western blot; protein-lipid overlay (GDSL-lipase): the GDSL-lipase does associate with PtdOH-containing liposomes (Figure 1G)

Reference: PMC4849433, “Phloem Proteomics Reveals New Lipid-Binding Proteins with a Putative Role in Lipid-Mediated Signaling” (Frontiers in Plant Science, 2016)
